According to US6156700A, “3-(1,2-Benzisothiazol- and isoxazol-5-yl)-2,4(1H,3H)-pyrimidinedione or thione and 3-(1,2-benzisothiazol- and isoxazol-5-yl)-4(3H)-pyrimidinone or thione herbicidal agents” (American Cyanmid Company, priority 1998, dated 2000):

Experiments:
[1] = test system: Foxtail, Green, Setaria viridis; test: Preemergence herbicidal evaluation, SETVI; assay type: in vivo, (L.) Beau; settings: 0.2500 kg/ha
Source text: (§1) Results of herbicide evaluation are expressed on a rating scale (0-9). The scale is based upon a visual observation of plant stand, vigor, malformation, size, chlorosis and overall plant appearance as compared with a control.
(§2) The preemergence herbicidal activity of the test compounds of the present invention is exemplified by the following tests in which the seeds of a variety of monocotyledonous and dicotyledonous plants are separately mixed with potting soil and planted on top of approximately one inch of soil in separate pint cups. After planting, the cups are sprayed with the selected aqueous acetone solution containing test compound in sufficient quantity to provide the equivalent of about 0.0156 to 0.500 kg per hectare of test compound per cup. The treated cups are then placed on greenhouse benches, watered and cared for in accordance with conventional greenhouse procedures. From four to five weeks after treatment, the tests are terminated and each cup is examined and rated according to the rating system provided in Example 185.
(§3) The compounds evaluated are reported by compound number given in Example 185.

[2] = test system: Wheat, Winter, cv Riband, Triticum aestivum; test: Preemergence herbicidal evaluation, TRZAWR; assay type: in vivo; settings: 0.2500 kg/ha
Source text: as §1, §2, §3

[3] = test system: Lambsquarters, Common, Chenopodium album; test: Postemergence herbicidal evaluation, CHEAL; assay type: in vivo, L.; settings: 0.0630 kg/ha
Summary of the method: (§4)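 Approximately two-week-old seedlings received a spray of active compound equivalent to about 0.0157–0.500 kg/ha. The carrier was acetone/water (50/50) with 0.5% TWEEN 20. Plants were kept on greenhouse benches and assessed 0–9 versus control after four to five weeks.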

[4] = test system: Morningglory, Ivyleaf, Ipomoea hederacea; test: Postemergence herbicidal evaluation, IPOHE; assay type: in vivo, (L.) Jacq.; settings: 0.0630 kg/ha
Summary of the method: as §4

[5] = test system: Foxtail, Green, Setaria viridis; test: Postemergence herbicidal evaluation, SETVI; assay type: in vivo, (L.) Beau; settings: 0.0630 kg/ha
Summary of the method: as §4

[6] = test system: Rice, Tebonnet, Oryza sativa; test: Preemergence herbicidal evaluation, ORYSAT; assay type: in vivo, (L.) Tebonnet; settings: 0.2500 kg/ha
Source text: as §1, §2, §3

[7] = test system: Wheat, Winter, cv Riband, Triticum aestivum; test: Postemergence herbicidal evaluation, TRZAWR; assay type: in vivo; settings: 0.0630 kg/ha
Summary of the method: as §4

[8] = test system: Galium, Galium aparine; test: Preemergence herbicidal evaluation, GALAP; assay type: in vivo; settings: 0.2500 kg/ha
Source text: as §1, §2, §3

[9] = test system: Corn, Field, Zea mays; test: Preemergence herbicidal evaluation, ZEAMX; assay type: in vivo, L.; settings: 0.2500 kg/ha
Source text: as §1, §2, §3

[10] = test system: Corn, Field, Zea mays; test: Postemergence herbicidal evaluation, ZEAMX; assay type: in vivo, L.; settings: 0.0630 kg/ha
Summary of the method: as §4

[11] = test system: Lambsquarters, Common, Chenopodium album; test: Preemergence herbicidal evaluation, CHEAL; assay type: in vivo, L.; settings: 0.2500 kg/ha
Source text: as §1, §2, §3

[12] = test system: Velvetleaf, Abutilon theophrasti; test: Preemergence herbicidal evaluation, ABUTH; assay type: in vivo, Medic.; settings: 0.2500 kg/ha
Source text: as §1, §2, §3

[13] = test system: Barnyardgrass, Echinochloa crus-galli; test: Postemergence herbicidal evaluation, ECHCG; assay type: in vivo, (L.) Beau; settings: 0.0630 kg/ha
Summary of the method: as §4

[14] = test system: Ragweed, Common, Ambrosia artemisifolia; test: Postemergence herbicidal evaluation, AMBEL; assay type: in vivo, L.; settings: 0.0630 kg/ha
Summary of the method: as §4

[15] = test system: Velvetleaf, Abutilon theophrasti; test: Postemergence herbicidal evaluation, ABUTH; assay type: in vivo, Medic.; settings: 0.0630 kg/ha
Summary of the method: as §4

[16] = test system: Soybean, Williams, Glycine max; test: Postemergence herbicidal evaluation, GLXMAW; assay type: in vivo, (L.) Merr. cv Williams; settings: 0.0630 kg/ha
Summary of the method: as §4

[17] = test system: Ragweed, Common, Ambrosia artemisifolia; test: Preemergence herbicidal evaluation, AMBEL; assay type: in vivo, L.; settings: 0.2500 kg/ha
Source text: as §1, §2, §3

[18] = test system: Morningglory, Ivyleaf, Ipomoea hederacea; test: Preemergence herbicidal evaluation, IPOHE; assay type: in vivo, (L.) Jacq.; settings: 0.2500 kg/ha
Source text: as §1, §2, §3

[19] = test system: Sicklepod, Cassia obtusifolia; test: Preemergence herbicidal evaluation, CASOB; assay type: in vivo, L.; settings: 0.2500 kg/ha
Source text: as §1, §2, §3

[20] = test system: Galium, Galium aparine; test: Postemergence herbicidal evaluation, GALAP; assay type: in vivo; settings: 0.0630 kg/ha
Summary of the method: as §4

[21] = test system: Rice, Tebonnet, Oryza sativa; test: Postemergence herbicidal evaluation, ORYSAT; assay type: in vivo, (L.) Tebonnet; settings: 0.0630 kg/ha
Summary of the method: as §4

[22] = test system: Barnyardgrass, Echinochloa crus-galli; test: Preemergence herbicidal evaluation, ECHCG; assay type: in vivo, (L.) Beau; settings: 0.2500 kg/ha
Source text: as §1, §2, §3

[23] = test system: Sicklepod, Cassia obtusifolia; test: Postemergence herbicidal evaluation, CASOB; assay type: in vivo, L.; settings: 0.0630 kg/ha
Summary of the method: as §4

[24] = test system: Soybean, Williams, Glycine max; test: Preemergence herbicidal evaluation, GLXMAW; assay type: in vivo, (L.) Merr. cv Williams; settings: 0.2500 kg/ha
Source text: as §1, §2, §3

Row | Compound | herbicide rating (0-9) [1] | herbicide rating (0-9) [2] | herbicide rating (0-9) [3] | herbicide rating (0-9) [4] | herbicide rating (0-9) [5] | herbicide rating (0-9) [6] | herbicide rating (0-9) [7] | herbicide rating (0-9) [8] | herbicide rating (0-9) [9] | herbicide rating (0-9) [10] | herbicide rating (0-9) [11] | herbicide rating (0-9) [12] | herbicide rating (0-9) [13] | herbicide rating (0-9) [14] | herbicide rating (0-9) [15] | herbicide rating (0-9) [17] | herbicide rating (0-9) [18] | herbicide rating (0-9) [19] | herbicide rating (0-9) [22] | herbicide rating (0-9) [24] | also measured
1 | COC(=O)C(C)Oc1ccc(C(C)C)cc1-c1nsc2ccc(-n3c(=O)cc(C(F)(F)F)n(C)c3=O)cc12 (stereo not drawn) [Compound 30, Methyl 2-{2-{5-[3,6-dihydro-3-methyl-4-(trifluoromethyl)-2,6-dioxo-1(2H)-pyrimidinyl]-1,2-benzisothiazol-3-yl}-4-isopropylphenoxy}propionate] | 9.0 | 7.0 | 9.0 | 9.0 | 9.0 | 6.0 | 7.5 | 7.0 | 7.0 | 9.0 | 9.0 | 9.0 | 9.0 | 9.0 | 9.0 | 9.0 | 9.0 | 9.0 | 7.0 | 6.0 | herbicide rating (0-9) [16]: 7.0; herbicide rating (0-9) [20]: 5.0; herbicide rating (0-9) [21]: 7.5; herbicide rating (0-9) [23]: 9.0
2 | COC(=O)COc1noc2ccc(-n3c(=O)cc(C(F)(F)F)n(C)c3=O)cc12 [Compound 22, Methyl {{5-[3,6-dihydro-3-methyl-2,6-dioxo-4-(trifluoromethyl)-1(2H)-pyrimidinyl]-1,2-benzisoxazol-3-yl}oxy}acetate] | 0.0 | 0.0 |  |  |  | 0.0 |  | 4.0 | 1.0 |  | 0.0 | 0.0 |  |  |  | 0.0 | 0.0 | 9.0 | 0.0 | 2.0 | 
3 | Cc1noc2cc(F)c(-n3c(=O)cc(C(F)(F)F)n(C)c3=O)cc12 [Compound 23, 3-(6-Fluoro-3-methyl-1,2-benzisoxazol-5-yl)-1-methyl-6-(trifluoromethyl)-2,4(1H,3H)-pyrimidinedione] | 9.0 | 9.0 |  |  |  | 9.0 |  | 9.0 | 9.0 |  | 9.0 | 9.0 |  |  |  | 9.0 | 9.0 | 9.0 | 9.0 | 9.0 | 
4 | COc1ccc(C)cc1-c1nsc2ccc(-n3c(=O)cc(C)n(C)c3=O)cc12 [Compound 24, 3-[3-(6-Methoxy-m-tolyl)-1,2-benzisothiazol-5-yl]-1,6-dimethyl-2,4(1H,3H)-pyrimidinedione] | 5.0 | 0.0 | 0.0 | 4.0 | 0.0 | 0.0 | 3.0 | 3.0 | 2.0 | 5.0 | 9.0 | 9.0 | 0.0 | 3.0 | 7.0 | 5.0 | 9.0 | 4.0 | 3.0 | 1.0 | herbicide rating (0-9) [16]: 3.0; herbicide rating (0-9) [20]: 0.0; herbicide rating (0-9) [21]: 0.5
5 | Cn1c(C(F)(F)F)cc(=O)n(-c2ccc3onc(-c4ccccc4)c3c2)c1=O [Compound 25, 1-Methyl-3-(3-phenyl-1,2-benzisoxazol-5-yl)-6-(trifluoromethyl)-2,4 (1H,3H)-pyrimidinedione] | 9.0 | 7.0 | 9.0 | 8.0 | 7.0 | 7.0 | 3.5 | 8.0 | 7.0 | 4.5 | 9.0 | 9.0 | 2.0 | 5.0 | 9.0 | 9.0 | 9.0 | 9.0 | 9.0 | 9.0 | herbicide rating (0-9) [16]: 7.0; herbicide rating (0-9) [20]: 5.0; herbicide rating (0-9) [21]: 3.5
6 | COc1c(C)cc(C)cc1-c1nsc2ccc(-n3c(=O)cc(C(F)(F)F)n(C)c3=O)cc12 [Compound 18, 3-[3-(2-Methoxy-3,5-xylyl)-1,2-benzisothiazol-5-yl]-1-methyl-6-(trifluoromethyl)-2,4(1H,3H)-pyrimidinedione] | 9.0 | 0.0 | 9.0 | 9.0 | 5.0 | 0.0 | 2.5 | 1.0 | 3.0 | 5.0 | 9.0 | 9.0 | 4.0 | 6.0 | 9.0 | 9.0 | 4.0 | 4.0 | 5.0 | 2.0 | herbicide rating (0-9) [16]: 4.0; herbicide rating (0-9) [20]: 5.0; herbicide rating (0-9) [21]: 2.0
